Measured values as given in patent publication US20240228536A1, “PEPTIDES FOR USE IN SKIN AND HAIR PIGMENTATION” (Follicum AB, priority 2020, published 2024).

Experiments:
[1] = Stability study of compositions comprising peptides 1 and 4 (HPLC purity); type: physicochemical; conditions: water-free formulations A, B and C, 20° C., 12 weeks
Description: Samples of the separate formulations were stored at 20° C. […] Analysis of peptide purity in ointment and PBS solutions was performed using standard HPLC-UV-DA methods when the samples were freshly prepared (time 0) and after 1, 2, 6, 8 and 12 weeks.

[2] = tested on: skin equivalents; test: Total melanin assay; type: cell-based, human
Description: The skin equivalents used in this study was from the same donors as in Example 2. The determination of the total melanin content of the skin equivalent was determined using a total melanin assay.
The total melanin content of the SE was calculated by dissolving the SE in Soluene and reading the absorbance against a standard curve. The SEs were removed from culture on day 20 and washed with PBS. They were then transferred to a glass centrifuge tube and 500 μl Soluene added. The tubes were then covered with […]®, gently vortexed and placed on the Thermomixer at 50° C. for 1 hour. The tubes were then gently vortexed and 150 μl of the sample and synthetic melanin standards pipetted in triplicate into a glass 96 well plate. The absorbance was then measured at 490 nm on a Spectrophotometer. Results are presented in μg/ml against a standard curve. The change of melanin content is expressed as a percentage change versus vehicle control samples. An ANOVA (with Dunnett's post-test) was used for the statistical analysis.
Three experiments were conducted, and the same donors were used as in Example 2. The sample sizes were as follows: experiment 1 n=2, experiment 2 n=4 and experiment 3 n=7. Peptides 1 (SEQ ID NO: 2), 3 (SEQ ID NO: 3) and 4 (SEQ ID NO: 4) were tested.

[3] = tested on: Pigmented skin equivalents (SEs), Melanoderms Mel-300-A (donor) and Mel-300-C-2 (donor); test: Skin equivalent culture, photographic assessment of pigmentation; type: cell-based, human
Description: The skin equivalent surface area was 63.6 mm^2. Other equipment used included SMZ1000 Stereo Microscope (Nikon); UC30 Microscope Camera (Olympus); Phosphate-Buffered Saline (PBS); 6-well Tissue Culture Plates (Sarstedt); Image J software (https://imagej.nih.gov); Paintshop Photo Pro Software (Corel). The Melanoderms were prepared by carefully removing the agarose with sterile forceps and placing them in pre-warmed culture medium (37° C.) for an hour prior to treatment. The Melanoderms were then topically treated (without rubbing) with 25 μl of the various peptides, dissolved in dH2O at 10 mg/ml. […] The SEs were examined and removed from culture when skin darkening became visible. The pigmentation of the Melanoderms was macroscopically assessed by capturing high-resolution images using the Olympus microscope camera. […] They were then placed into a 6-well plate containing 1 ml PBS/well and images captured at ×8 magnification. The images were then processed using Image J & Paintshop Photo Pro software, to determine a quantifiable pixel area, which equated to the level of pigmentation present in the skin equivalent. The image brightness was normalised and the image gray-scaled using Paintshop Photo Pro, then Image J was used to threshold the image. The pigmentation was quantified by assessing total pixel area of pigmentation coverage in a fixed sample area. An ANOVA test (Dunnett's post-test) was used for the statistical analysis. Three different experiments were conducted. In the first, skin equivalents from both donors were included, and in experiment 2 and 3, only the […] donor was included. The SE of the […] donor from the first experiment received 5 treatments of 25 μl of peptide solution at 10 mg/ml; starting on the first day following receipt then on days 3, 5, 9 and 12. Peptides 1 (SEQ ID NO: 2), 3 (SEQ ID NO: 3) and 4 (SEQ ID NO: 4) were tested. The images were taken on Day 14. In experiment 2, peptide 3 and 4 were selected for testing to see if it had any efficacy in reducing melanin content or the distribution of melanin throughout the SE. This time, 5 SEs were used per treatment to improve statistical robustness. The experiment was continued for 20 days with treatments on days 0, 3, 7 and 12 and medium changes every other day. In experiment 3 a more highly pigmented SE ([…] donor melanocytes) was used and with an increased sample size with n=7 per treatment. […] Treatment was repeated on days 5, 9, 12 and 15 with medium changed every other day.

[4] = tested on: TYRP-1; test: qPCR expression analysis of melanogenesis markers in Melanoderm SEs; type: cell-based, human; conditions: 0.4% in formulation B, day 7, against formulation B only (p=0.005, t-test)
Description: (§1) RNA stabilized Melanoderm tissue from Example 13 was thawed on ice RNA extracted using the RNeasy extraction kit (Qiagen, UK) according to manufacturer's instructions.
(§2) To ensure efficient lysis, tissue was ground in lysis buffer in a RNase-free 1.5 ml centrifuge tube using a sterile microbiological colony picker then passed through a Qiashredder column (Qiagen, UK) before lysate was purified. To prevent carry over of gDNA to qPCR, on-column digestion using 80 μl of DNase enzyme was added (DNase on column digestion kit, Sigma, UK). RNA was eluted in a 50 μl volume of sterile elution buffer and stored at −80° C. until use. For cDNA reverse transcription 8 μl of RNA was added as template in a 20 μl final volume in a 96-well plate using the iScript Advanced cDNA Synthesis Kit for RT-qPCR (Bio-Rad, UK) according to manufacturer's instructions. Low profile 96-well PCR plates and seals for qPCR reactions were obtained from Thermofisher. For qPCR 1 μl of cDNA from each test sample and relevant controls were amplified in a 96-well plate using SsoAdvanced Universal SYBR® Green Supermix and target pigmentation specific gene primers (pigment cell-specific pre-melanosomal protein (PMEL), Tyrosinase-related protein-1 (TYRP-1) and Tyrosinase (TYR)) in a 20 μl final reaction volume. Prevalidated primers, templates and gDNA controls were sourced from Bio-Rad, UK. Prevalidated template cDNA was included as a positive control for each gene tested. Ribosomal protein-20 (RPS20) was used as a housekeeping gene control. Samples were amplified using an Applied Biosystems StepOne Plus qPCR machine and associated software. Differences in fold gene expression between treatments and untreated controls were calculated from RPS20 reference gene normalised Ct values using the ΔΔCt method (2-(ΔΔCt)). Final expression values were log 10 transformed prior to statistical analysis (unpaired t-test) using Prism software.

[5] = tested on: Tyrosinase (TYR); test: as above; type: cell-based, human; conditions: 0.4% in formulation B, day 7, compared to formulation B only (p=0.027, t-test)
Description: as §1, §2

[6] = tested on: PMEL; test: as above; type: cell-based, human; conditions: 0.4% in formulation B, day 7, against formulation B treatment only (p=0.015, t-test)
Description: as §1, §2

[7] = experiments 1 and 3, 10 mg/ml topical, day 20
[8] = experiment 1, donor, 10 mg/ml, 20 days in culture
[9] = experiment 1, donor, 5 topical treatments of 25 μl at 10 mg/ml in dH2O, images Day 14
[10] = experiment 3, more highly pigmented SE (donor), 10 mg/ml, n=7

| Substance | stability (peptide purity by HPLC) [1] | total melanin content of skin equivalents vs vehicle control [2, 7] | pigmentation of skin equivalents (photographic assessment) compared to vehicle control [3, 8] | pigmentation of skin equivalents (photographic assessment) compared to vehicle control [3, 9] | pigmentation of skin equivalents (photographic assessment) compared to vehicle control [3, 10] | relative expression of TYRP-1 (qPCR) [4] | relative expression of Tyrosinase (TYR) (qPCR) [5] | relative expression of PMEL (qPCR) [6] | total melanin content of skin equivalents vs vehicle control ([2]; experiment 2, 10 mg/ml topical, day 20, n=4) | pigmentation of skin equivalents (photographic assessment) compared to vehicle control ([3]; experiment 2, donor, 10 mg/ml, 20 days, n=5) |
| --- | --- | --- | --- | --- | --- | --- | --- | --- | --- | --- |
| Asn-Ala-His-Met (NAHM; (1)..(4) Peptide 1) | stable | increase in melanin content | somewhat darker and mottled appearance | more pigmented compared to the vehicle | increase in pigmentation | – | – | – | – | – |
| Asn-Ala-Ala-Met (NAAM; (1)..(4) Peptide 4) | – | increase in melanin content | somewhat darker and mottled appearance | more pigmented compared to the vehicle | increase in pigmentation | moderately significant increase in expression | significant increase in expression | greatest increase in expression which was significant | significant increase in melanin content | increase in pigmentation compared to the vehicle control samples |
